Measurements: patent publication US10155798B2, “Anti-obesity compounds derived from neuromedin U” (The Regents of the University of California, priority 2013, dated 2018)
Where a SMILES comes first, the peptide text is derived from it. [ ]: non-standard residue; d: D form. The star is where a group is joined. X1 = CCCCCCCCCCCCCCCCN(CCCCCCCCCCCCCCCC)CCCCCC(=O)*; Aib = CC(C)(N)C(=O)O

What was measured:
male DIO C57BL/6 mice [1] = assay: Hematological parameters of animals treated with NM4-C16; format: in vivo, mouse; conditions: 2.6 mg/kg every 7 days for 21 days
Description: (§1) Despite limited success with our “double-lipidation” approach, we decided to test NM4-C16 analog in vivo using once weekly subcutaneous injection regimen at the 2.6 mg/kg dose, which is equimolar to previously used NM4A dose (e.g. 1603 nMole/kg).

Water solubility = format: physicochemical
male DIO C57BL/6 mice [2] = assay: Abdominal fat evaluation of chronically treated animals; format: in vivo, mouse; conditions: chronic treatment 21 days, 1603 nMole/kg; vehicle ~8%
Description: FIG. 7. (A) Abdominal fat evaluation of chronically treated animals. Ad libitum fed male DIO C57BL/6 mice were treated with either vehicle or NM4A (2.2 mg/kg; 1603 nMole/kg) every 2 days or NM4A (2.2 mg/kg; 1603 nMole/kg) every 4 days or ^(*)NM4-C16 (2.6 mg/kg; 1603 nMole/kg) every 7 days for 21 days. Subsequently, their abdominal fat was harvested and weighted. Results are expressed as % of abdominal fat per total body weight. (B) Distribution of NM4A in NM4A chronically treated animals (2.2 mg/kg; every 2 days for 28 days).
For three groups of animals treated every 2, 4 and 7 days we also performed abdominal fat evaluation (FIG. 7A).

male DIO C57BL/6 mice [3] = assay: Chronic in vivo experiments in DIO mice (body weight, food intake, gastric emptying); parameters: species or system mouse
Description: FIG. 4. Anorectic effects of NM4A in chronic in vivo experiments. (A) Ad libitum fed male DIO C57BL/6 mice were treated with either vehicle or NM4A (2.2 mg/kg; 1603 nMole/kg) every 2, 4 or 7 days for 21 days. (B) Ad libitum fed male DIO C57BL/6 mice were treated with either vehicle or NM4A (2.2 mg/kg; 1603 nMole/kg) once a week for 21 days. After initial treatment animals were kept either on high-fat diet (FD) or normal diet (ND).
FIG. 6. (A) Comparison of anorectic effects of NM4A & NM4-C16 analogs in chronic in vivo experiments. Ad libitum fed male DIO C57BL/6 mice were treated with either vehicle or NM4A (2.2 mg/kg; 1603 nMole/kg) or NM4-C16 (2.6 mg/kg; 1603 nMole/kg) every 7 days for 21 days. (B) Food intake of animals treated with NM4-C16 (2.6 mg/kg; 1603 nMole/kg) every 7 days for 21 days.
NM4A was characterized further in in vivo chronic experiments. Ad libitum fed male DIO C57BL/6 mice, which were kept on the high fat diet (Cat #D12492, Research Diets, Inc., New Brunswick, N.J.), were treated subcutaneously (s.c.) with either vehicle or NM4A (2.2 mg/kg; 1603 nMole/kg) either every 2, 4 or 7 days for 21 days. […] To determine whether NM4A can be used as an auxiliary in dieting of the obese subjects we tested its efficiency in once weekly regimen at the 2.2 mg/kg dose. In this case, ad libitum fed male DIO C57BL/6 mice were kept either on the high fat diet (FD) or regular diet (ND) during NM4A's administration.
as §1
All animal experiments were approved by the UCLA Animal Care and Use Committee (ARC #1999-173-23) and conformed to local and national guidelines. Ad libitum fed male DIO C57BL/6 mice (n=8 per group) kept on D12492, a high-fat diet composed of 60% Kcal from fat (Research Diets, Inc., New Brunswick, N.J.) were weighed and individually dosed (s.c., 30 min prior to the onset of the dark phase of the light cycle) with either vehicle or NM4A (2.2 mg/kg; 1603 nMole/kg) every 2 days or NM4A (2.2 mg/kg; 1603 nMole/kg) every 4 days or NM4A (2.2 mg/kg; 1603 nMole/kg) every 7 days or NM4-C16 (2.6 mg/kg; 1603 nMole/kg) every 7 days for 21 days and their food intake and body weight were measured daily. […] Briefly, calculated amount of the desired peptide (1 eq) and 10 equivalents of PUREBRIGHT® SL-220 (1 mg: 10 mg) were solubilized in minimal volume of 90% absolute ethyl alcohol in water. Subsequently solution was aliquoted into Eppendorf tubes and freeze-dried. Obtained solid residue was re-solubilized in the proper amount of PBS directly before use by vortexing.

[4] = molecular target: T1, NMUR2 (neuromedin U 2 receptor) (Homo sapiens, UniProt Q9GZQ4); assay: Calcium mobilization assay, HEK-NMU2 cells; format: cell-based; conditions: HEK293 cells expressing NMU2 receptor, NA = not active
T1 construct: expressed in transfected cells; host or cells: HEK293 (HEK-NMU2)
Description: To test whether neuromedin U can be modified/derivatized to yield truncated bioactive compound(s) that may be useful as therapeutics, we synthesized a small library (25 peptides) of hNMU analogs utilizing various stabilization protocols, including: cyclization, lipidation, introduction of α,α-disubstituted and N-methylated amino acids, retro-inverso-approach, and combination of such (see Table 1). Subsequently all analogues were tested against human neuromedin U receptors (NMUR1 and NMUR2) in calcium mobilization assay (collaboration with Dr Gary Willars, University of Leicester, UK).
HEK293 cells expressing either the neuromedin U 1 receptor or neuromedin U 2 receptor (HEK-NMU1 and HEK-NMU2 respectively) were grown to approximately 90% confluence in ELISA strip plates (96-well format) pre-coated with poly-D-lysine (0.1% w/v) and loaded for 45 min at 37° C. with 2 iM fluo-4-AM in Krebs'-HEPES buffer with bovine serum albumin (KHB-BSA; composition: 10 mM HEPES; 4.2 mM NaHCO3; 11.7 mM D-glucose; 1.18 mM MgSO4.7H2O; 1.18 mM KH2PO4; 4.69 mM KCl; 118 mM NaCl; 1.3 mM CaCl2.2H2O; 0.1% (w/v) BSA; pH 7.4). Monolayers were then washed and equilibrated for 5 min at 37° C. in 100 il KHB-BSA for subsequent recording of fluorescence as an index of intracellular [Ca^2+] ([Ca^2+]i) using a microplate reader (NOVOstar; BMG LABTECH, Aylesbury, U.K.). Briefly, 20 μl of KHB-BSA, with or without ligand, was added into the well (200 μl/s) and fluorescence determined at 0.5 s intervals by excitation at 485 nm and collection of emitted light at 520 nm. Changes in fluorescence above basal levels (before ligand addition) were determined. […] Fmax was obtained by removal of buffer and addition of KHB-BSA buffer containing 4 mM [Ca^2+] and ionomycin (2 μM) to representative wells and the fluorescence measured for 10 min. Fmin was then derived by replacing buffer with Ca^2+-free KHB-BSA buffer containing 2 mM EGTA and fluorescence measured for 10 min. For the determination of concentration-response relationships, the maximal change in [Ca^2+]i was calculated following ligand addition. Concentration-response curves were then fitted using a four-parameter logistic equation to determine EC50 values (GraphPad Software Inc., Calif.).

T1 sequence (Q9GZQ4 whole entry): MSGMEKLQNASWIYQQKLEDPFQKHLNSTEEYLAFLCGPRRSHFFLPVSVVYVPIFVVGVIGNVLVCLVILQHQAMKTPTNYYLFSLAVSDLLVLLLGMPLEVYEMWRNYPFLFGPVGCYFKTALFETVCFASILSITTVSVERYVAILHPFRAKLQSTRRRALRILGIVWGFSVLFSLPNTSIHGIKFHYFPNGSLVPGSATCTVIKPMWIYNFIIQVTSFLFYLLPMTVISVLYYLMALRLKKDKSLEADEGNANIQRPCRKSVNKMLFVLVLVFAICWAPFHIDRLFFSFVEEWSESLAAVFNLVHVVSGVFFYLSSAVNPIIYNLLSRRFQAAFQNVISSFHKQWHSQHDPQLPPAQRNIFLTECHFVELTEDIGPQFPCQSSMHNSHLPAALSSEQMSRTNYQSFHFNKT

- hematological parameters/blood cell count (male DIO C57BL/6 mice [1]): appears to be normal
- water solubility (Water solubility): limited water solubility
- EC50 [4]: 741 ± 32 nM
SMILES: CCCCCCCCCCCCCCCCN(CCCCCCCCCCCCCCCC)CCCCCC(=O)NC(C)(C)C(=O)N[C@@H](Cc1ccccc1)C(=O)N[C@@H](CC(C)C)C(=O)N[C@@H](Cc1ccccc1)C(=O)N[C@@H](CCCNC(=N)N)C(=O)N1CCC[C@H]1C(=O)N[C@@H](CCCNC(=N)N)C(=O)N[C@@H](CC(N)=O)C(N)=O [Peptide M4-C16, (c16)2-Ahx-Aib-FL-Phe-Arg-Pro-R-Asn] (X1-[Aib]FLFRPRN-NH2)
- abdominal fat content (% of abdominal fat per total body weight) (male DIO C57BL/6 mice [2]): ~5%
- body weight, once-weekly administration (male DIO C57BL/6 mice [3]; s.c. 2.6 mg/kg (1603 nMole/kg) every 7 days for 21 days): sustained weight loss
- gastric emptying in experimental animals (male DIO C57BL/6 mice [3]; s.c. 1603 nMole/kg, chronic regimen): very limited gastric emptying
